According to the supplement of paper PMC10307832:

What was measured:
Assay in all cases: relative viability (nuclei count vs DMSO), 5 days (fraction); higher = more cells survive
COR-L23 = test system: COR-L23
Summary of the method: (§1)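 Relative viability is defined as nuclei in treated wells over nuclei in vehicle wells. Duplicate plates were run and medians reported. Lung cancer cell lines in 1536-well plates were dosed by pin tool one day after seeding, with one drug or with a fixed anchor-drug dose plus five library-drug doses (not always all listed) in √10 steps, and nuclei were counted after 5 days.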

NCI-H2085 = test system: NCI-H2085
Summary of the method: as §1

NCI-H1563 = test system: NCI-H1563
Summary of the method: as §1

LU99A = test system: LU99A
Summary of the method: as §1

NCI-H1395 = test system: NCI-H1395
Summary of the method: as §1

NCI-H1793 = test system: NCI-H1793
Summary of the method: as §1

HCC-827 = test system: HCC-827
Summary of the method: as §1

NCI-H1944 = test system: NCI-H1944
Summary of the method: as §1

H3255 = test system: H3255
Summary of the method: as §1

LCLC-103H = test system: LCLC-103H
Summary of the method: as §1

NCI-H650 = test system: NCI-H650
Summary of the method: as §1

NCI-H520 = test system: NCI-H520
Summary of the method: as §1

NCI-H1651 = test system: NCI-H1651
Summary of the method: as §1

NCI-H2023 = test system: NCI-H2023
Summary of the method: as §1

NCI-H838 = test system: NCI-H838
Summary of the method: as §1

EMC-BAC-2 = test system: EMC-BAC-2
Summary of the method: as §1

NCI-H2405 = test system: NCI-H2405
Summary of the method: as §1

SK-MES-1 = test system: SK-MES-1
Summary of the method: as §1

EPLC-272H = test system: EPLC-272H
Summary of the method: as §1

NCI-H2087 = test system: NCI-H2087
Summary of the method: as §1

HCC-44 = test system: HCC-44
Summary of the method: as §1

Cc1sc2c(c1C)C(c1ccc(Cl)cc1)=N[C@@H](CC(=O)OC(C)(C)C)c1nnc(C)n1-2 [JQ1] + Cc1nc(NC(=O)N2CCC[C@H]2C(N)=O)sc1-c1ccnc(C(C)(C)C(F)(F)F)c1 [Alpelisib] (partner 2 µM)
relative viability (COR-L23; first compound 0.04 µM): 0.814 | relative viability (COR-L23; first compound 0.1265 µM): 0.708 | relative viability (COR-L23; first compound 0.4 µM): 0.754 | relative viability (COR-L23; first compound 1.265 µM): 0.36 | relative viability (COR-L23; first compound 4 µM): 0.21 | relative viability (NCI-H2085; first compound 0.04 µM): 0.975 | relative viability (NCI-H2085; first compound 0.1265 µM): 0.844 | relative viability (NCI-H2085; first compound 0.4 µM): 0.824 | relative viability (NCI-H2085; first compound 1.265 µM): 0.595 | relative viability (NCI-H2085; first compound 4 µM): 0.549 | relative viability (NCI-H1563; first compound 0.04 µM): 0.846 | relative viability (NCI-H1563; first compound 0.1265 µM): 0.854 | relative viability (NCI-H1563; first compound 0.4 µM): 0.932 | relative viability (NCI-H1563; first compound 1.265 µM): 0.573 | relative viability (NCI-H1563; first compound 4 µM): 0.613 | relative viability (LU99A; first compound 0.04 µM): 0.537 | relative viability (LU99A; first compound 0.1265 µM): 0.544 | relative viability (LU99A; first compound 0.4 µM): 0.424 | relative viability (LU99A; first compound 1.265 µM): 0.307 | relative viability (LU99A; first compound 4 µM): 0.235 | relative viability (NCI-H1395; first compound 0.04 µM): 1.03 | relative viability (NCI-H1395; first compound 0.1265 µM): 0.856 | relative viability (NCI-H1395; first compound 0.4 µM): 0.813 | relative viability (NCI-H1395; first compound 1.265 µM): 0.495 | relative viability (NCI-H1395; first compound 4 µM): 0.404 | relative viability (NCI-H1793; first compound 0.04 µM): 0.653 | relative viability (NCI-H1793; first compound 0.1265 µM): 0.781 | relative viability (NCI-H1793; first compound 0.4 µM): 0.558 | relative viability (NCI-H1793; first compound 1.265 µM): 0.633 | relative viability (NCI-H1793; first compound 4 µM): 0.696 | relative viability (HCC-827; first compound 0.04 µM): 0.929 | relative viability (HCC-827; first compound 0.4 µM): 0.672 | relative viability (HCC-827; first compound 1.265 µM): 1.07 | relative viability (HCC-827; first compound 4 µM): 1.11 | relative viability (NCI-H1944; first compound 0.04 µM): 0.709 | relative viability (NCI-H1944; first compound 0.1265 µM): 0.722 | relative viability (NCI-H1944; first compound 0.4 µM): 0.715 | relative viability (NCI-H1944; first compound 1.265 µM): 0.544 | relative viability (NCI-H1944; first compound 4 µM): 0.397 | relative viability (H3255; first compound 0.04 µM): 0.691 | relative viability (H3255; first compound 0.1265 µM): 0.62 | relative viability (H3255; first compound 0.4 µM): 0.619 | relative viability (H3255; first compound 1.265 µM): 0.34 | relative viability (H3255; first compound 4 µM): 0.296 | relative viability (LCLC-103H; first compound 0.04 µM): 0.957 | relative viability (LCLC-103H; first compound 0.1265 µM): 0.828 | relative viability (LCLC-103H; first compound 0.4 µM): 0.751 | relative viability (LCLC-103H; first compound 1.265 µM): 0.572 | relative viability (NCI-H650; first compound 0.04 µM): 1.11 | relative viability (NCI-H650; first compound 0.1265 µM): 0.715 | relative viability (NCI-H650; first compound 0.4 µM): 0.707 | relative viability (NCI-H650; first compound 1.265 µM): 0.377 | relative viability (NCI-H650; first compound 4 µM): 0.257 | relative viability (NCI-H520; first compound 0.04 µM): 0.798 | relative viability (NCI-H520; first compound 0.1265 µM): 0.934 | relative viability (NCI-H520; first compound 0.4 µM): 0.667 | relative viability (NCI-H520; first compound 1.265 µM): 0.38 | relative viability (NCI-H520; first compound 4 µM): 0.268 | relative viability (NCI-H1651; first compound 0.04 µM): 0.882 | relative viability (NCI-H1651; first compound 0.1265 µM): 0.886 | relative viability (NCI-H1651; first compound 0.4 µM): 0.589 | relative viability (NCI-H1651; first compound 1.265 µM): 0.462 | relative viability (NCI-H1651; first compound 4 µM): 0.411 | relative viability (NCI-H2023; first compound 0.04 µM): 0.544 | relative viability (NCI-H2023; first compound 0.1265 µM): 0.651 | relative viability (NCI-H2023; first compound 0.4 µM): 0.531 | relative viability (NCI-H2023; first compound 1.265 µM): 0.213 | relative viability (NCI-H2023; first compound 4 µM): 0.217 | relative viability (NCI-H838; first compound 0.04 µM): 1.03 | relative viability (NCI-H838; first compound 0.1265 µM): 0.698 | relative viability (NCI-H838; first compound 0.4 µM): 0.882 | relative viability (NCI-H838; first compound 1.265 µM): 0.291 | relative viability (NCI-H838; first compound 4 µM): 0.263 | relative viability (EMC-BAC-2; first compound 0.04 µM): 0.663 | relative viability (EMC-BAC-2; first compound 0.1265 µM): 0.749 | relative viability (EMC-BAC-2; first compound 0.4 µM): 0.576 | relative viability (EMC-BAC-2; first compound 1.265 µM): 0.439 | relative viability (EMC-BAC-2; first compound 4 µM): 0.386 | relative viability (NCI-H2405; first compound 0.04 µM): 0.824 | relative viability (NCI-H2405; first compound 0.4 µM): 0.74 | relative viability (NCI-H2405; first compound 1.265 µM): 0.436 | relative viability (NCI-H2405; first compound 4 µM): 0.256 | relative viability (SK-MES-1; first compound 0.04 µM): 0.769 | relative viability (SK-MES-1; first compound 0.1265 µM): 0.68 | relative viability (SK-MES-1; first compound 0.4 µM): 0.733 | relative viability (SK-MES-1; first compound 1.265 µM): 0.456 | relative viability (SK-MES-1; first compound 4 µM): 0.27 | relative viability (EPLC-272H; first compound 0.04 µM): 0.897 | relative viability (EPLC-272H; first compound 0.1265 µM): 0.904 | relative viability (EPLC-272H; first compound 0.4 µM): 0.889 | relative viability (EPLC-272H; first compound 1.265 µM): 0.423 | relative viability (EPLC-272H; first compound 4 µM): 0.376 | relative viability (NCI-H2087; first compound 0.04 µM): 1.08 | relative viability (NCI-H2087; first compound 0.4 µM): 0.811 | relative viability (NCI-H2087; first compound 1.265 µM): 0.625 | relative viability (NCI-H2087; first compound 4 µM): 0.438 | relative viability (HCC-44; first compound 0.04 µM): 0.809 | relative viability (HCC-44; first compound 0.1265 µM): 0.518 | relative viability (HCC-44; first compound 0.4 µM): 0.37 | relative viability (HCC-44; first compound 1.265 µM): 0.251 | relative viability (HCC-44; first compound 4 µM): 0.238
